Usually EC50 stands for the concentration giving half of the maximal effect. Usually Emax stands for the maximal effect, on the per cent scale that the assay sets.

Test [1] is described as follows: Effect on Wnt signaling pathway in human SW480 cells harbouring TCF/LEF luciferase reporter gene and SP5-Luc reporter gene incubated for 36 to 48 hrs by luminescence assay. It counts as cell-based. Background: Reporter assays use an easily measured gene product as a stand-in for the process of interest.
The nature of test [2]: Induction of chondrogenesis in human MSC assessed as incubated for 6 days by rhodamine B and Nile red staining based imaging analysis. The following applies: bmmsc. In kind it is functional.
Test [3] has as its target Dual specificity tyrosine-phosphorylation-regulated kinase 1A (Homo sapiens, UniProt Q13627). Briefly: Inhibition of recombinant DYRK1A (unknown origin) using Ser/Thr 18 peptide as substrate incubated for 1 hr in presence of ATP by FRET assay.
A short description of test [4]: Induction of chondrogenesis in human MSC assessed as maximum activity at 10 nM incubated for 6 days by rhodamine B and Nile red staining based imaging analysis relative to control. It counts as functional. As to conditions: BMMSC, 144 h, time 6 day.

Each structure is given as a SMILES string. A value given as a limit tells only on which side of the number the result lay.

In the case of `c1cncc(-c2ccc3[nH]nc(-c4cc5cccnc5[nH]4)c3n2)c1`, the EC50 in test [1] is more than 10000 nM; in test [2], 10 nM; in test [3] it was 24 nM. Besides, the Emax at 0.01 µM in test [4] came out at 65.9%.

For the compound `CCCCC(=O)Nc1cncc(-c2cc3c(-c4cc5c(-c6cc(F)cc(CNS(C)(=O)=O)c6)nccc5[nH]4)n[nH]c3cn2)c1`, the EC50 in test [1] was more than 10000 nM; in test [2], 10 nM; in test [3], 62 nM. Besides, in test [4], the Emax at 0.01 µM came to 111%.

Turning to `CCNCc1cncc(-c2ccc3[nH]nc(-c4cc5cccnc5[nH]4)c3n2)c1`, the EC50 in test [1] was 3760 nM; in test [2] it was 10 nM; in test [3] it was 29 nM. Also, the maximal effect (Emax) at 0.01 µM in test [4] turned out to be 79.9%.

With `CCCCC(=O)Nc1cncc(-c2ccc3[nH]nc(-c4nc5c(-c6ccoc6)cncc5[nH]4)c3n2)c1`, the figures for the EC50 in test [1], in test [2] and in test [3] were more than 10000 nM, 10 nM and 92 nM, respectively. Further, in test [4], the Emax at 0.01 µM was 73.6%.

Take `CS(=O)(=O)NCc1cc(F)cc(-c2nccc3[nH]c(-c4n[nH]c5ccc(-c6cncc(CN7CCCCC7)c6)nc45)cc23)c1`: the EC50 was 1100 nM in test [1], 10 nM in test [2] and 68 nM in test [3]. In addition, the maximal response (Emax) at 0.01 µM in test [4] came to 50.1%.

With `CS(=O)(=O)NCc1cc(F)cc(-c2nccc3[nH]c(-c4n[nH]c5ccc(-c6cncc(NC(=O)Cc7ccccc7)c6)nc45)cc23)c1`, the EC50 in test [1] is more than 10000 nM; in test [2] it was 10 nM; in test [3] it was 100 nM. The Emax at 0.01 µM in test [4] was 110%.

As for `COc1cncc(C(=O)Nc2c[nH]nc2C(=O)Nc2ccc(OCCN3CCCC3)nc2)c1`, the EC50 in test [1] was found to be 22.3 nM; in test [2], 10 nM; in test [3] it was 12 nM. Also, the maximal effect (Emax) at 0.01 µM in test [4] came out at 106%.

As to `O=C(CC1CCNCC1)Nc1cncc(-c2ccc3[nH]nc(-c4cc5c(-c6ccoc6)ccnc5[nH]4)c3n2)c1`, the values for the EC50 in test [1], in test [2] and in test [3] were more than 10000 nM, 10 nM and 64 nM, respectively. Moreover, in test [4], the maximum response (Emax) at 0.01 µM was 102%.

As for `CN(C)Cc1cncc(-c2ccc3[nH]nc(-c4nc5c(-c6cccc(F)c6)nccc5[nH]4)c3n2)c1`, the EC50 in test [1] is 1050 nM; in test [2] it was 30 nM; in test [3] it was 48 nM. Moreover, the Emax at 0.01 µM in test [4] came out at 75.6%.

Regarding `CN1CCN(c2nccc3[nH]c(-c4n[nH]c5cnc(-c6cncc(NC(=O)c7ccccc7)c6)cc45)cc23)CC1`, the 50% effective concentration (EC50) was found to be 2800 nM in test [1], 10 nM in test [2] and 4 nM in test [3]. The Emax at 0.01 µM in test [4] was 67%.

Regarding `c1ccc2[nH]c(-c3n[nH]c4ncc(-c5cncc(CN6CCCC6)c5)cc34)cc2c1`, the EC50 was found to be 1410 nM in test [1], 10 nM in test [2] and 56 nM in test [3]. In addition, in test [4], the Emax at 0.01 µM was found to be 97.6%.

Take `O=C(Nc1cncc(-c2ccc3[nH]nc(-c4nc5c(-c6ccc(Cl)s6)nccc5[nH]4)c3n2)c1)C1CCC1`: the figures for the EC50 in test [1], in test [2] and in test [3] were 823 nM, 30 nM and 92 nM, respectively. The Emax at 0.01 µM in test [4] is 60.2%.

Take `CS(=O)(=O)NCc1cc(F)cc(-c2cncc3[nH]c(-c4n[nH]c5ccc(-c6cncc(NC(=O)C7CC7)c6)nc45)cc23)c1`: the EC50 in test [1] was 1300 nM; in test [2] it was 10 nM; in test [3], 53 nM. Further, the Emax at 0.01 µM in test [4] was 82.9%.

Consider `Cc1ccc(-c2nccc3[nH]c(-c4n[nH]c5ccc(-c6cncc(N)c6)cc45)nc23)s1`, for which the EC50 in test [1] was determined as 1.9 nM; in test [2], 2700 nM; in test [3], 58 nM. Further, the Emax at 0.01 µM in test [4] was 163%.

`CCCCC(=O)Nc1cncc(-c2ccc3[nH]nc(-c4nc5c(-c6cc(F)cc(NCCN(C)C)c6)cncc5[nH]4)c3n2)c1`: the EC50 was more than 10000 nM in test [1], 10 nM in test [2] and 55 nM in test [3]. Besides, the Emax at 0.01 µM in test [4] amounted to 64.7%.

With `O=C(Nc1cncc(-c2cnc3[nH]nc(-c4cc5c(-c6ccccc6F)cncc5[nH]4)c3c2)c1)C1CC1`, the EC50 was determined as 390 nM in test [1], 10 nM in test [2] and 48 nM in test [3]. Also, in test [4], the maximum response (Emax) at 0.01 µM is 52.1%.

As to `COc1cccc(-c2nccc3[nH]c(-c4n[nH]c5ccc(-c6cccnc6)nc45)nc23)c1`, the concentration for a half-maximal effect (EC50) in test [1] came to 377 nM; in test [2], 30 nM; in test [3] it was 26 nM. Besides, the Emax at 0.01 µM in test [4] stood at 50.6%.

In the case of `Cc1ccc(-c2cccc3[nH]c(-c4n[nH]c5ccc(-c6cncc(N)c6)nc45)nc23)s1`, the EC50 in test [1] is 66.3 nM; in test [2], 10 nM; in test [3], 20 nM. For the same compound, the Emax at 0.01 µM in test [4] worked out at 87.9%.

With `CCCCC(=O)Nc1cncc(-c2ccc3[nH]nc(-c4nc5c(-c6cc(F)cc(NCCN(C)C)c6)ccnc5[nH]4)c3n2)c1`, the results for the EC50 in test [1], in test [2] and in test [3] were more than 10000 nM, 10 nM and 18 nM, respectively. For the same compound, the Emax at 0.01 µM in test [4] amounted to 71.4%.

In the case of `CC(C)Nc1cncc(-c2cnc3[nH]nc(-c4cc5c(-c6ccccc6F)nccc5[nH]4)c3c2)c1`, the EC50 in test [1] is 435 nM; in test [2] it was 10 nM; in test [3] it was 44 nM. In test [4], the maximal effect (Emax) at 0.01 µM was found to be 75.8%.

For `c1cc(-c2cncc3[nH]c(-c4n[nH]c5ccc(-c6cncc(CN7CCCCC7)c6)nc45)cc23)ccn1`, the results for the EC50 in test [1], in test [2] and in test [3] were more than 10000 nM, 10 nM and 20 nM, respectively. The Emax at 0.01 µM in test [4] was determined as 97.1%.

With `CCNCc1cncc(-c2ccc3[nH]nc(-c4cc5ccccc5[nH]4)c3c2)c1`, the EC50 in test [1] stood at 395 nM; in test [2] it was 10 nM; in test [3] it was 11 nM. Further, the Emax at 0.01 µM in test [4] was determined as 532%.

`CC(C)(C)CC(=O)Nc1cncc(-c2ccc3[nH]nc(-c4nc5ccncc5[nH]4)c3n2)c1`: the half-maximal effective concentration (EC50) in test [1] was more than 10000 nM; in test [2] it was 10 nM; in test [3], 21 nM. In addition, the Emax at 0.01 µM in test [4] was determined as 54.1%.

As for `Nc1cncc(-c2ccc3[nH]nc(-c4nc5c(-c6ccccc6F)cccc5[nH]4)c3n2)c1`, the EC50 stood at 1070 nM in test [1], 30 nM in test [2] and 40 nM in test [3]. For the same compound, the Emax at 0.01 µM in test [4] was found to be 81.8%.

Regarding `CCC(=O)Nc1cncc(-c2cnc3[nH]nc(-c4cc5c(-c6cccnc6)cccc5[nH]4)c3c2)c1`, the EC50 in test [1] is 180 nM; in test [2], 10 nM; in test [3], 13 nM. For the same compound, the maximum response (Emax) at 0.01 µM in test [4] is 671%.

`CC(C)CC(=O)Nc1cncc(-c2cnc3[nH]nc(-c4cc5c(-c6cccnc6)ccnc5[nH]4)c3c2)c1`: the concentration for a half-maximal effect (EC50) in test [1] was more than 10000 nM; in test [3], 5 nM. For the same compound, in test [4], the Emax at 0.01 µM stood at 43.5%.

Turning to `CCNCc1cncc(-c2cnc3[nH]nc(-c4nc5c(-c6cccc(F)c6)cccc5[nH]4)c3c2)c1`, the EC50 in test [1] turned out to be 40.9 nM; in test [3] it was 48 nM. Moreover, the Emax at 0.01 µM in test [4] was 98.7%.

For the compound `O=C(Nc1cncc(-c2ccc3[nH]nc(-c4nc5c(-c6ccccc6F)cccc5[nH]4)c3n2)c1)C(F)(F)F`, the EC50 in test [1] is 823 nM; in test [3] it was 30 nM. Also, the Emax at 0.01 µM in test [4] turned out to be 40.1%.

As for `O=C(CC1CCNCC1)Nc1cncc(-c2cc3c(-c4nc5c(-c6cccc(F)c6)ccnc5[nH]4)n[nH]c3cn2)c1`, the results for the EC50 in test [1] and in test [3] were 345 nM and 5 nM, respectively. Further, the maximal response (Emax) at 0.01 µM in test [4] was determined as 54.7%.

Consider `CC(C)CC(=O)Nc1cncc(-c2ccc3[nH]nc(-c4cc5c(N6CCN(C)CC6)ccnc5[nH]4)c3n2)c1`, for which the EC50 stood at 3450 nM in test [1] and 5 nM in test [3]. In test [4], the Emax at 0.01 µM is 49.5%.

As to `FC1(F)CCN(Cc2cncc(-c3cc4c(-c5cc6cccnc6[nH]5)n[nH]c4cn3)c2)C1`, the EC50 is 1350 nM in test [1] and 12 nM in test [3]. The Emax at 0.01 µM in test [4] stood at 45.3%.

Take `CS(=O)(=O)NCc1cc(F)cc(-c2cncc3[nH]c(-c4n[nH]c5ncc(-c6cncc(CN7CCCCC7)c6)cc45)cc23)c1`: the EC50 in test [1] stood at 1850 nM; in test [3], 21 nM. The Emax at 0.01 µM in test [4] turned out to be 22.7%.

As for `CN1CCN(c2ccnc3[nH]c(-c4n[nH]c5ccc(-c6cncc(N)c6)nc45)nc23)CC1`, the EC50 is more than 10000 nM in test [1] and 93 nM in test [3]. Also, the Emax at 0.01 µM in test [4] was 46.9%.

Take `COc1cncc(C(=O)Nc2c[nH]nc2C(=O)Nc2ccc(N3CCNCC3)nc2)c1`: the EC50 amounted to 681 nM in test [1] and 7 nM in test [3]. Further, in test [4], the maximal effect (Emax) at 0.01 µM was found to be 90.7%.

Turning to `CN1CCN(c2nccc3[nH]c(-c4n[nH]c5cnc(-c6cncc(N)c6)cc45)cc23)CC1`, the EC50 was more than 10000 nM in test [1] and 16 nM in test [3]. In test [4], the Emax at 0.01 µM was found to be 49.8%.

For `c1cncc(-c2ccc3[nH]nc(-c4cc5c(-c6cccnc6)ccnc5[nH]4)c3c2)c1`, the EC50 is more than 10000 nM in test [1] and 34 nM in test [3]. In addition, in test [4], the Emax at 0.01 µM was determined as 16.7%.

For `CCC(=O)Nc1cncc(-c2ccc3[nH]nc(-c4cc5c(-c6cccc(F)c6)nccc5[nH]4)c3c2)c1`, the EC50 in test [1] was determined as 45 nM; in test [3], 18 nM. For the same compound, in test [4], the maximum response (Emax) at 0.01 µM was 16.2%.

Consider `CN(C)Cc1cncc(-c2ccc3[nH]nc(-c4nc5c(-c6cccc(F)c6)cncc5[nH]4)c3n2)c1`, for which the EC50 in test [1] was 1050 nM; in test [3], 62 nM. Moreover, in test [4], the maximal response (Emax) at 0.01 µM is 16.7%.

Regarding `CCCC(=O)Nc1cncc(-c2cnc3[nH]nc(-c4cc5c(-c6cc(F)cc(CNS(C)(=O)=O)c6)cncc5[nH]4)c3c2)c1`, the concentration for a half-maximal effect (EC50) amounted to 1680 nM in test [1] and 14 nM in test [3]. Also, the maximum response (Emax) at 0.01 µM in test [4] was determined as 36.7%.

`CS(=O)(=O)NCc1cc(F)cc(-c2cncc3[nH]c(-c4n[nH]c5cnc(-c6cncc(NC(=O)C7CCC7)c6)cc45)cc23)c1`: the figures for the EC50 in test [1] and in test [3] were more than 10000 nM and 32 nM, respectively. Moreover, the Emax at 0.01 µM in test [4] turned out to be 15.5%.
